Laboratory results: ChEMBL document CHEMBL1201862, “PubChem BioAssay data set” (2004)
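Tested at 5 concentrations; 48 h exposure; 96-well plates; endpoints linearly interpolated, else capped at highest concentration. At the GI50, growth is halved.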 Calls of active or inactive are those of the source. No stated cut-off is given here; in the data, active = GI50 up to about 1.1 µM and inactive = higher.

What was measured:
Assay in all cases: NCI-60 cell line screen, 48 h
ACHN = tested on: ACHN
U-251 = tested on: U-251
OVCAR-5 = tested on: OVCAR-5
HCT-116 = tested on: HCT-116
MDA-MB-231 = tested on: MDA-MB-231
SF-295 = tested on: SF-295
NCI-H460 = tested on: NCI-H460
SF-539 = tested on: SF-539
CAKI-1 = tested on: CAKI-1
K562 = tested on: K562
HCC 2998 = tested on: HCC 2998
NCI-H226 = tested on: NCI-H226
MCF7 = tested on: MCF7
HOP-92 = tested on: HOP-92
SK-OV-3 = tested on: SK-OV-3
SK-MEL-5 = tested on: SK-MEL-5
EKVX = tested on: EKVX
LOX IMVI = tested on: LOX IMVI
DU-145 = tested on: DU-145
PC-3 = tested on: PC-3
MDA-N = tested on: MDA-N
OVCAR-4 = tested on: OVCAR-4
HCT-15 = tested on: HCT-15
A498 = tested on: A498
UACC-62 = tested on: UACC-62
SF-268 = tested on: SF-268
SNB-75 = tested on: SNB-75
MOLT-4 = tested on: MOLT-4
786-0 = tested on: 786-0
T47D = tested on: T47D
COLO 205 = tested on: COLO 205
MDA-MB-435 = tested on: MDA-MB-435
Malme-3M = tested on: Malme-3M
OVCAR-8 = tested on: OVCAR-8
OVCAR-3 = tested on: OVCAR-3
M14 = tested on: M14
A549 = tested on: A549
RXF 393 = tested on: RXF 393
CCRF-CEM = tested on: CCRF-CEM
RPMI-8226 = tested on: RPMI-8226
IGROV-1 = tested on: IGROV-1
NCI-H23 = tested on: NCI-H23
UO-31 = tested on: UO-31
SN12C = tested on: SN12C
Hs-578T = tested on: Hs-578T
BT-549 = tested on: BT-549
NCI-H522 = tested on: NCI-H522
SK-MEL-28 = tested on: SK-MEL-28
TK-10 = tested on: TK-10
SW-620 = tested on: SW-620
HT-29 = tested on: HT-29
NCI/ADR-RES = tested on: NCI/ADR-RES
SNB-19 = tested on: SNB-19
HL-60 = tested on: HL-60
KM12 = tested on: KM12
SR = tested on: SR
SK-MEL-2 = tested on: SK-MEL-2
UACC-257 = tested on: UACC-257
HOP-62 = tested on: HOP-62

O=c1[nH]c(-c2ccccc2)nc2c1sc1nc3ccccc3n12
GI50 (ACHN): 61.4 µM (inactive) | GI50 (U-251): > 87.7 µM (inactive) | GI50 (OVCAR-5): > 100 µM (inactive) | GI50 (HCT-116): > 100 µM (inactive) | GI50 (MDA-MB-231): > 100 µM (inactive) | GI50 (SF-295): > 100 µM (inactive) | GI50 (NCI-H460): > 100 µM (inactive) | GI50 (SF-539): > 100 µM (inactive) | GI50 (CAKI-1): > 100 µM (inactive) | GI50 (K562): > 100 µM (inactive) | GI50 (HCC 2998): > 100 µM (inactive) | GI50 (NCI-H226): > 100 µM (inactive) | GI50 (MCF7): > 100 µM (inactive) | GI50 (HOP-92): > 100 µM (inactive) | GI50 (SK-OV-3): > 100 µM (inactive) | GI50 (SK-MEL-5): > 100 µM (inactive) | GI50 (EKVX): > 100 µM (inactive) | GI50 (LOX IMVI): > 100 µM (inactive) | GI50 (DU-145): > 100 µM (inactive) | GI50 (PC-3): > 100 µM (inactive) | GI50 (MDA-N): > 100 µM (inactive) | GI50 (OVCAR-4): > 81.3 µM (inactive) | GI50 (HCT-15): > 100 µM | GI50 (A498): > 100 µM (inactive) | GI50 (UACC-62): > 100 µM (inactive) | GI50 (SF-268): 78.2 µM (inactive) | GI50 (SNB-75): > 63.1 µM (inactive) | GI50 (MOLT-4): 16.1 µM (inactive) | GI50 (786-0): > 100 µM (inactive) | GI50 (T47D): > 100 µM (inactive) | GI50 (COLO 205): > 100 µM (inactive) | GI50 (MDA-MB-435): > 100 µM (inactive) | GI50 (Malme-3M): > 100 µM (inactive) | GI50 (OVCAR-8): > 100 µM (inactive) | GI50 (OVCAR-3): > 100 µM (inactive) | GI50 (M14): > 100 µM (inactive) | GI50 (A549): > 100 µM (inactive) | GI50 (RXF 393): > 100 µM (inactive) | GI50 (CCRF-CEM): > 100 µM (inactive) | GI50 (RPMI-8226): 1.52 µM (inactive) | GI50 (IGROV-1): > 100 µM (inactive) | GI50 (NCI-H23): > 100 µM (inactive) | GI50 (UO-31): > 100 µM (inactive) | GI50 (SN12C): > 100 µM (inactive) | GI50 (Hs-578T): 26.7 µM (inactive) | GI50 (BT-549): > 61 µM (inactive) | GI50 (NCI-H522): > 100 µM (inactive) | GI50 (SK-MEL-28): > 100 µM (inactive) | GI50 (TK-10): > 100 µM (inactive) | GI50 (SW-620): > 100 µM (inactive) | GI50 (HT-29): > 100 µM (inactive) | GI50 (NCI/ADR-RES): > 100 µM (inactive) | GI50 (SNB-19): 98.4 µM (inactive) | GI50 (HL-60): > 100 µM (inactive) | GI50 (KM12): > 92.7 µM (inactive) | GI50 (SR): > 100 µM (inactive) | GI50 (SK-MEL-2): > 100 µM (inactive) | GI50 (UACC-257): > 100 µM (inactive)

Cc1cn([C@H]2C[C@](C)(CO)N(C)O2)c(=O)[nH]c1=O
GI50 (ACHN): > 100 µM (inactive) | GI50 (U-251): > 100 µM (inactive) | GI50 (OVCAR-5): > 100 µM (inactive) | GI50 (HCT-116): > 100 µM (inactive) | GI50 (MDA-MB-231): > 100 µM (inactive) | GI50 (SF-295): > 100 µM (inactive) | GI50 (NCI-H460): > 100 µM (inactive) | GI50 (CAKI-1): > 100 µM (inactive) | GI50 (K562): > 100 µM (inactive) | GI50 (HCC 2998): > 100 µM (inactive) | GI50 (NCI-H226): > 100 µM (inactive) | GI50 (MCF7): > 100 µM (inactive) | GI50 (HOP-92): > 100 µM (inactive) | GI50 (SK-OV-3): > 100 µM (inactive) | GI50 (SK-MEL-5): > 100 µM (inactive) | GI50 (EKVX): > 100 µM (inactive) | GI50 (LOX IMVI): > 100 µM (inactive) | GI50 (DU-145): > 100 µM (inactive) | GI50 (PC-3): > 100 µM (inactive) | GI50 (MDA-N): > 100 µM (inactive) | GI50 (OVCAR-4): > 100 µM (inactive) | GI50 (A498): > 100 µM (inactive) | GI50 (UACC-62): > 100 µM (inactive) | GI50 (SF-268): > 100 µM (inactive) | GI50 (SNB-75): > 100 µM (inactive) | GI50 (MOLT-4): > 100 µM (inactive) | GI50 (786-0): > 100 µM (inactive) | GI50 (T47D): > 100 µM (inactive) | GI50 (HOP-62): > 100 µM (inactive) | GI50 (COLO 205): > 100 µM (inactive) | GI50 (MDA-MB-435): > 100 µM (inactive) | GI50 (Malme-3M): > 100 µM (inactive) | GI50 (M14): > 100 µM (inactive) | GI50 (A549): > 100 µM (inactive) | GI50 (RXF 393): > 100 µM (inactive) | GI50 (RPMI-8226): > 100 µM (inactive) | GI50 (IGROV-1): > 100 µM (inactive) | GI50 (NCI-H23): > 100 µM (inactive) | GI50 (UO-31): > 100 µM (inactive) | GI50 (SN12C): > 100 µM (inactive) | GI50 (Hs-578T): > 100 µM (inactive) | GI50 (BT-549): > 100 µM (inactive) | GI50 (NCI-H522): > 100 µM (inactive) | GI50 (SK-MEL-28): > 100 µM (inactive) | GI50 (TK-10): > 100 µM (inactive) | GI50 (SW-620): > 100 µM (inactive) | GI50 (HT-29): > 100 µM (inactive) | GI50 (NCI/ADR-RES): > 100 µM (inactive) | GI50 (SNB-19): > 100 µM (inactive) | GI50 (HL-60): > 100 µM (inactive) | GI50 (KM12): > 100 µM (inactive) | GI50 (SR): > 100 µM (inactive) | GI50 (SK-MEL-2): > 100 µM (inactive) | GI50 (UACC-257): > 100 µM (inactive)
